Laboratory results taken from US9675064B2, “Microbicidal composition” (Dow Global Technologies LLC, priority 2013, dated 2017).
Where two headings read alike, the source gives them in different places.

Tests used:
Format in all cases: cell-based
any organism tested = test: Synergy index test, summary statements over the organisms tested; settings: for Synergy of biocide paired with surfactant: against any organism tested; for ratio of surfactant to biocide where synergy was observed: not commercially relevant (less biocide relative to surfactant)
Procedure: Surfactants and biocides were evaluated for synergy by determining the synergy index (S.I.) of the combination. Synergy index was calculated based on minimum inhibitory concentrations (MIC) of two antimicrobial compounds (A and B) alone and in combinations. The tests organisms were Gram negative bacteria (Pseudomonas aeruginosa ATCC #15442), Gram positive bacteria (Staphylococcus aureus ATCC #6538), yeast (Candida albicans ATCC#10203) and mold (Aspergillus niger ATCC#16404). Contact time for the bacteria was 24 and 48 hours, yeast was 48 and 72 hrs, and 3 and 7 days for mold. The test was carried out in 96 well microtiter plates. R^1O(CH2CH(CH3)O)5(CH2CH2O)9H, Surf. A where R^1 is 2-ethylhexyl R^2O(CH2CH(CH3)O)3(CH2CH2O)5H Surf. D R^2O(CH2CH(CH3)O)3(CH2CH2O)7H Surf. E In Surf. D and Surf. E, R^2 is a mixture of C8-C14 linear alkyl groups (70% C8-C10 linear alkyl and 30% C12-C14 linear alkyl)
SI is calculated as follows: Ca/CA+Cb/CB=Synergy Index (“SI”)
Wherein: • CA=concentration of compound A in ppm, acting alone, which produced an end point (MIC of Compound A). • Ca=concentration of compound A in ppm, in the mixture, which produced an end point. • CB=concentration of compound B in ppm, acting alone, which produced an end point (MIC of Compound B). • Cb=concentration of compound B in ppm, in the mixture, which produced an end point. When the sum of Ca/CA and Cb/CB is greater than one, antagonism is indicated.

[1] = system: Aspergillus niger ATCC#16404; test: MIC / synergy index test in 96 well microtiter plates, mold; settings: A. niger ATCC#16404, 3rd day, Media PDB; for MIC: Aspergillus niger, ATCC16404, read-out: CB (MIC of compound B acting alone), B: Potassium Sorbate
Procedure: (§1) Surfactants and biocides were evaluated for synergy by determining the synergy index (S.I.) of the combination. Synergy index was calculated based on minimum inhibitory concentrations (MIC) of two antimicrobial compounds (A and B) alone and in combinations. The tests organisms were Gram negative bacteria (Pseudomonas aeruginosa ATCC #15442), Gram positive bacteria (Staphylococcus aureus ATCC #6538), yeast (Candida albicans ATCC#10203) and mold (Aspergillus niger ATCC#16404). Contact time for the bacteria was 24 and 48 hours, yeast was 48 and 72 hrs, and 3 and 7 days for mold. The test was carried out in 96 well microtiter plates. […] E In Surf. D and Surf. […] [table] […] SI is calculated as follows: Ca/CA+Cb/CB=Synergy Index (“SI”) Wherein: • CA=concentration of compound A in ppm, acting alone, which produced an end point (MIC of Compound A). • Ca=concentration of compound A in ppm, in the mixture, which produced an end point. • CB=concentration of compound B in ppm, acting alone, which produced an end point (MIC of Compound B). • Cb=concentration of compound B in ppm, in the mixture, which produced an end point. When the sum of Ca/CA and Cb/CB is greater than one, antagonism is indicated.

[2] = system: Staphylococcus aureus ATCC #6538; test: MIC / synergy index test in 96 well microtiter plates, Gram positive bacteria; settings: for CB (MIC of compound B acting alone): S. aureus ATCC# 6538, 24 hrs
Procedure: as §1

[3] = system: Pseudomonas aeruginosa ATCC #15442; test: MIC / synergy index test in 96 well microtiter plates, Gram negative bacteria
Procedure: as §1

[4] = system: Candida albicans ATCC#10203; test: MIC / synergy index test in 96 well microtiter plates, yeast; settings: for MIC: Candida albicans, ATCC10203, 48 h
Procedure: as §1

SMILES: Oc1ccccc1-c1ccccc1 [OPP]
- Synergy of biocide paired with surfactant (any organism tested; paired with Surf. D): no synergy

SMILES: CCCCCCCCCC[N+](C)(C)CCCCCCCCCC.[Cl-] [DIDAC]
- ratio of surfactant to biocide where synergy was observed (any organism tested; combination with Surf. A): 1:0.2 or greater
- ratio of surfactant to biocide where synergy was observed (any organism tested; combination with Surf. D): 1:0.2 or greater

SMILES: CCC12COCN1COC2 [CS-1246]
- Synergy of biocide paired with surfactant (any organism tested; paired with Surf. D): no synergy

SMILES: CCCCNC(=O)OCC#CI [IPBC]
- ratio of surfactant to biocide where synergy was observed (any organism tested; combination with Surf. A): 1:0.2 or greater
- ratio of surfactant to biocide where synergy was observed (any organism tested; combination with Surf. D): 1:0.05 or worse
- ratio of surfactant to biocide where synergy was observed (any organism tested; combination with Surf. E): 1:0.2 or greater

SMILES: CCCCCCCCCCCCCC[P+](CCCC)(CCCC)CCCC.[Cl-] [TTPC]
- ratio of surfactant to biocide where synergy was observed (any organism tested; combination with Surf. E): 1:0.2 or greater

SMILES: C/C=C/C=C/C(=O)[O-].[K+] [Potassium Sorbate]
- MIC ([1]; inoculum 1.156E+06 (table with Surf. D)): 6000 µg/mL
- MIC ([1]; inoculum 1.156E+06 CFU/ml (table with Surf. A)): 1000 µg/mL
- MIC ([1]; inoculum 1.156E+06 CFU/ml (table with Surf. E)): 1000 µg/mL
- CB (MIC of compound B acting alone) ([2]; B: Potassium Sorbate, Media 1/10TSB, inoculum 1.808E+06 CFU/ml): 30000 ppm
- MIC ([2]; Staphylococcus aureus, ATCC6538, 24 h, read-out: CB (MIC of compound B acting alone)): 30000 µg/mL
- MIC ([3]; Pseudomonas aeruginosa, ATCC15442, 24 h, read-out: CB (MIC of compound B acting alone)): 15000 µg/mL
- MIC ([4]; read-out: CB (MIC of compound B acting alone), B: Potassium Sorbate, C. albicans ATCC#10203, Media PDB, inoculum 1.156E+06 CFU/ml): 800 µg/mL
- MIC ([4]; read-out: CB (MIC of compound B acting alone), B: Potassium Sorbate, C. albicans ATCC#10203, Media PDB, inoculum 1.808E+06 CFU/ml): 600 µg/mL
- MIC ([4]; read-out: CB (MIC of compound B acting alone), B: Potassium Sorbate, C. albicans ATCC#10203, Media PDB, inoculum 5.726E+05 CFU/ml): 1200 µg/mL

SMILES: O=C([O-])c1ccccc1.[Na+] [Sodium Benzoate]
- CB (MIC of compound B acting alone) ([1]; B: Sodium Benzoate, inoculum 1.156E+06): 5998 ppm
- CB (MIC of compound B acting alone) ([2]; B: Sodium Benzoate, Media 1/10 TSB, inoculum 1.808E+05): 30000 ppm
- CB (MIC of compound B acting alone) ([2]; B: Sodium benzoate, Media 1/10TSB, inoculum 1.808E+06 CFU/ml): 30000 ppm
- CB (MIC of compound B acting alone) ([3]; B: Sodium Benzoate, Ps. aeruginosa ATCC#15442, 48 hrs, Media 1/10TSB, inoculum 5.727E+07 CFU/ml): 14991 ppm
- CB (MIC of compound B acting alone) ([4]; B: Sodium Benzoate, C. albicans ATCC#10203, 48 hrs, Media PDB, inoculum 5.726E+05 CFU/ml): 1200 ppm
- Synergy of biocide paired with surfactant (any organism tested; paired with Surf. A): no synergy

SMILES: CCCCCCCCn1sccc1=O [OIT]
- ratio of surfactant to biocide where synergy was observed (any organism tested; combination with Surf. D): 1:0.2 or greater
- ratio of surfactant to biocide where synergy was observed (any organism tested; combination with Surf. E): 1:0.2 or greater

SMILES: Cn1sc2ccccc2c1=O [MBIT]
- ratio of surfactant to biocide where synergy was observed (any organism tested; combination with Surf. D): 1:0.05 or worse

SMILES: O=[N+]([O-])C(CO)(CO)CO [TRIS NITRO]
- Synergy of biocide paired with surfactant (any organism tested; paired with Surf. A): no synergy

SMILES: CC1(C)C(=O)N(CO)C(=O)N1CO [DMDMH]
- Synergy of biocide paired with surfactant (any organism tested; paired with Surf. D): no synergy
- Synergy of biocide paired with surfactant (any organism tested; paired with Surf. E): no synergy
